Here are results for two compounds from patent US7091352B2, “Compounds substituted with bicyclic amino groups” (priority 2001, dated 2006).

The subject of assay [1] is TNFα production. In words: Inhibition of the production of TNFα in vitro in human whole blood (LPS stimulation, ELISA). Type of assay: cell-based. To be noted: read-out: Inhibitory Effect on TNFα Production IC50. The protocol:
(§1) This test was performed according to the method of Hartman, et al. [D. A. Hartman, S. J. Ochalski and R. P. Carlson; The effects of anti-inflammatory and antiallergic drugs on cytokine release after stimulation of human whole blood by lipopolysaccharide and zymosan A: Inflamm. Res., 44, 269 (1995)].
(§2) Peripheral blood samples were collected in the presence of heparin from healthy adult volunteers. 1000 μl of whole blood were added to an Eppendorf tube to which 2 μl of a dimethyl sulfoxide solution of the test compound had been added in advance, after which 10 μl of lipopolysaccharide (E. coli 026: B6 origin, Difco) were added as a stimulant (final concentration of said lipopolysaccharide: 10 μg/ml). This was mixed well and then incubated for 6 hours at 37° C. in the presence of 5% CO2. At the end of the incubation, the mixture was cooled to 4° C. to stop the reaction, followed immediately by centrifuging for 5 minutes at 14,000 rpm to separate and collect the supernatant plasma. The IL-1β and TNFα produced and released into the plasma were measured using commercially available enzyme immunoassay (ELISA) kits [Cayman (IL-1β) and Genzyme (TNFα)]. […] The inhibitory effect [IC50 (μM)] on the production of IL-1β and TNFα was determined by the method of least squares from the amounts of the cytokines produced in the presence and absence of the test compound.

The test system of assay [2] is IL-1β production. Description: Inhibition of the production of IL-1β in vitro in human whole blood (LPS stimulation, ELISA). The format is cell-based. To be noted: lipopolysaccharide 10 μg/ml, 6 hours at 37° C., plasma ELISA, read-out: Inhibitory Effect on IL-1β Production IC50. How it is done:
as §1, §2
For orientation: In an ELISA, binding on a coated surface is turned into a signal by an enzyme label.

What is called IC50 is the concentration at which inhibition is half-maximal.

Read-outs that look alike come from different tables or passages of the source.

For `OC1(c2n[nH]c(-c3ccc(F)cc3)c2-c2ccncc2)CCN2CCCC2C1` (racemic) [Example 2, (±)-5-(4-Fluorophenyl)-3-(7-hydroxy-1,2,3,5,6,7,8,8a-octahydroindolizin-7-yl)-4-(pyridin-4-yl)pyrazole], the IC50 in assay [1] (human whole blood, lipopolysaccharide 10 μg/ml, 6 hours at 37° C., plasma ELISA) was determined as 70 nM; in assay [2] it was 35 nM. For `CC1C[C@H]2C=C(c3n[nH]c(-c4ccc(F)cc4)c3-c3ccncc3)CCN2C1` (stereo partly drawn) [Example 12, 5-(4-Fluorophenyl)-3-[(8aS)-2-methyl-1,2,3,5,6,8a-hexahydroindolizin-7-yl]-4-(pyridin-4-yl)pyrazole], the IC50 in assay [1] (Homo sapiens, 6 h) came to 2.6 nM.
